Experimental data taken from ChEMBL document CHEMBL1147725, “Identification and biological characterization of 6-aryl-7-isopropylquinazolinones as novel TRPV1 antagonists that are effective in models of chronic pain” (J Med Chem, 2006).
Values after ≈ are worked out from the molar mass of the structure shown.

Key:
[1] = Plasma concentration in rat at 3 mg/kg, po after 24 hrs; format: ADME, organism-based; set-up: dose 3 mg/kg, route oral; settings: Wistar Han
Rattus norvegicus [2] = assay: Concentration in rat brain at 10 mg/kg, po after 4 hrs; format: ADME, organism-based, Wistar Han; set-up: dose 10 mg/kg, route oral; settings: in vivo
Rattus norvegicus [3] = assay: Concentration in rat brain at 1 mg/kg, iv after 1.5 hrs; format: ADME, organism-based, Wistar Han; set-up: dose 1 mg/kg, route intravenous; settings: in vivo
[4] = Plasma concentration in rat at 10 mg/kg, po after 4 hrs; format: ADME, organism-based; set-up: dose 10 mg/kg, route oral; settings: Wistar Han
[5] = Plasma concentration in rat at 3 mg/kg, po after 2 hrs; format: ADME, organism-based; set-up: dose 3 mg/kg, route oral; settings: Wistar Han
[6] = Oral Bioavailability in rat at 3mg/kg; format: ADME, organism-based; settings: Wistar Han, in vivo
Rattus norvegicus [7] = assay: Concentration in rat brain at 3 mg/kg, po after 1 hrs; format: ADME, organism-based, Wistar Han; set-up: dose 3 mg/kg, route oral; settings: in vivo
[8] = Plasma concentration in rat at 3 mg/kg, po after 1.5 hrs; format: ADME, organism-based; set-up: dose 3 mg/kg, route oral; settings: Wistar Han
[9] = biological target: Transient receptor potential cation channel subfamily V member 1 (Homo sapiens, UniProt Q8NER1); assay: Inhibition of calcium influx evoked by capsaicin in human TRPV1 expressing cells by fluorescence assay; format: functional
Chain of Transient receptor potential cation channel subfamily V member 1 (Q8NER1 whole entry): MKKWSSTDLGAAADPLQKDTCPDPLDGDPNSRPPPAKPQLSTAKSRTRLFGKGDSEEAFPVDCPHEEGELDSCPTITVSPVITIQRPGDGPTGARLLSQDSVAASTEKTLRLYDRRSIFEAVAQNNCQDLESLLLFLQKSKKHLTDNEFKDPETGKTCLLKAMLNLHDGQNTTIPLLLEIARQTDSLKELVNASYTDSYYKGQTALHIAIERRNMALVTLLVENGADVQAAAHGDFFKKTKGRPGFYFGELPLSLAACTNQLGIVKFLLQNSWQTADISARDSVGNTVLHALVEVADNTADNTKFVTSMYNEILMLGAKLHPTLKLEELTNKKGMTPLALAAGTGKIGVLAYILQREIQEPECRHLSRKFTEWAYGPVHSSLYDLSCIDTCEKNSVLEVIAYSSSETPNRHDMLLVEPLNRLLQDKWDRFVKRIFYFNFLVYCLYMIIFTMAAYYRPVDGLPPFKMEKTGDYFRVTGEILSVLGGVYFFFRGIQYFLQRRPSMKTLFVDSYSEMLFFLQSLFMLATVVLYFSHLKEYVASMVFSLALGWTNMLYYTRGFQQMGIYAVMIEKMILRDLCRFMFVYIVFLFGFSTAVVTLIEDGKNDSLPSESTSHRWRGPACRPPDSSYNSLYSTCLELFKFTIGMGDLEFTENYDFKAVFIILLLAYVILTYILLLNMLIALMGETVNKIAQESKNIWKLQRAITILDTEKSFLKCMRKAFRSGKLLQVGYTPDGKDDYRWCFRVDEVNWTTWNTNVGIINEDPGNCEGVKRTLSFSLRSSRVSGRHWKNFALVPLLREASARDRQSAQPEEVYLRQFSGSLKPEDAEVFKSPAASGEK

[10] = Terminal half life in rat at 1 mg/kg, iv; format: ADME, organism-based; set-up: dose 1 mg/kg, route intravenous; settings: Wistar Han, in vivo, read-out: beta t1/2 (converted)
Rattus norvegicus [11] = assay: Concentration in rat brain at 10 mg/kg, po after 1 hrs; format: ADME, organism-based, Wistar Han; set-up: dose 10 mg/kg, route oral; settings: in vivo
Rattus norvegicus [12] = assay: Concentration in rat brain at 10 mg/kg, po after 9 hrs; format: ADME, organism-based, Wistar Han; set-up: dose 10 mg/kg, route oral; settings: in vivo
Rattus norvegicus [13] = assay: Concentration in rat brain at 10 mg/kg, po after 18 hrs; format: ADME, organism-based, Wistar Han; set-up: dose 10 mg/kg, route oral; settings: in vivo
Rattus norvegicus [14] = assay: Concentration in rat brain at 1 mg/kg, iv after 1 hrs; format: ADME, organism-based, Wistar Han; set-up: dose 1 mg/kg, route intravenous; settings: in vivo
Rattus norvegicus [15] = assay: Concentration in rat brain at 10 mg/kg, po after 6 hrs; format: ADME, organism-based, Wistar Han; set-up: dose 10 mg/kg, route oral; settings: in vivo
Rattus norvegicus [16] = assay: Concentration in rat brain at 3 mg/kg, po after 9 hrs; format: ADME, organism-based, Wistar Han; set-up: dose 3 mg/kg, route oral; settings: in vivo
Rattus norvegicus [17] = assay: Concentration in rat brain at 1 mg/kg, iv after 6 hrs; format: ADME, organism-based, Wistar Han; set-up: dose 1 mg/kg, route intravenous; settings: in vivo
[18] = Tmax in rat brain at 3 mg/kg, po; format: ADME, organism-based; set-up: dose 3 mg/kg, route oral; settings: Wistar Han
Rattus norvegicus [19] = assay: Cmax in rat brain at 3 mg/kg, po; format: ADME, organism-based, Wistar Han; set-up: dose 3 mg/kg, route oral; settings: in vivo
[20] = Plasma concentration in rat at 1 mg/kg, iv after 1.5 hrs; format: ADME, organism-based; set-up: dose 1 mg/kg, route intravenous; settings: Wistar Han
[21] = Aqueous solubility at pH 6.8 and 25 degC; format: physicochemical; settings: aqueous medium
[22] = biological target: Transient receptor potential cation channel subfamily V member 1 (Rattus norvegicus) (UniProt O35433); assay: Effect on capsaicin induced mechanical hyperalgesia in rat; format: functional
Chain of Transient receptor potential cation channel subfamily V member 1 (Rattus norvegicus) (O35433 whole entry): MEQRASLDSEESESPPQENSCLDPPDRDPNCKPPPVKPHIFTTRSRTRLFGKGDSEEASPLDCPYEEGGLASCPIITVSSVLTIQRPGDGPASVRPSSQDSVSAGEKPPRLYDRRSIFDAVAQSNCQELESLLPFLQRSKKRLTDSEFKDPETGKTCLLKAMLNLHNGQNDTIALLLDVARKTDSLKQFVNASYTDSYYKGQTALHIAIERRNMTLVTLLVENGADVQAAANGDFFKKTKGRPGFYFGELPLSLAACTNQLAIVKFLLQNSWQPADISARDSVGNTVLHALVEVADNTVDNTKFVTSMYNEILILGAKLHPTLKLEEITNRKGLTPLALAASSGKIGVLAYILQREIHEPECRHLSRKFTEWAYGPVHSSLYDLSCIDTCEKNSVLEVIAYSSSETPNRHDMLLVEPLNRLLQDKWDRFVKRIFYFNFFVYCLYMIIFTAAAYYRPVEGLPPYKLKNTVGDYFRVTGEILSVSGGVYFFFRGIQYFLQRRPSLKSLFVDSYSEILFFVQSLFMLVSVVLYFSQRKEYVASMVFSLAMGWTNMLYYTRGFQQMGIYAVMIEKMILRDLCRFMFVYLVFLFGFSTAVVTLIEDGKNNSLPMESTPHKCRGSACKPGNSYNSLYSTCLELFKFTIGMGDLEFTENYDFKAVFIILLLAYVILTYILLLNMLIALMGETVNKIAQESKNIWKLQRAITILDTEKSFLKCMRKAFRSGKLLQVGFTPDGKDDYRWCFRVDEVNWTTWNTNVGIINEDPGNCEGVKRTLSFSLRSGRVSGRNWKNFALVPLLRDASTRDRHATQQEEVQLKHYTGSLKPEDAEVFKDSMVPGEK

[23] = Plasma concentration in rat at 1 mg/kg, iv after 0.16 hrs; format: ADME, organism-based; set-up: dose 1 mg/kg, route intravenous; settings: Wistar Han
[24] = Plasma concentration in rat at 1 mg/kg, iv after 0.5 hrs; format: ADME, organism-based; set-up: dose 1 mg/kg, route intravenous; settings: Wistar Han
Rattus norvegicus [25] = assay: Concentration in rat brain at 1 mg/kg, iv after 0.16 hrs; format: ADME, organism-based, Wistar Han; set-up: dose 1 mg/kg, route intravenous; settings: in vivo
Rattus norvegicus [26] = assay: Concentration in rat brain at 3 mg/kg, po after 6 hrs; format: ADME, organism-based, Wistar Han; set-up: dose 3 mg/kg, route oral; settings: in vivo
[27] = Tmax in rat brain at 1 mg/kg, iv; format: ADME, organism-based; set-up: dose 1 mg/kg, route intravenous; settings: Wistar Han
[28] = Clearance in rat at 1 mg/kg, iv; format: ADME, organism-based; set-up: dose 1 mg/kg, route intravenous; settings: Wistar Han, in vivo
Rattus norvegicus [29] = assay: Concentration in rat brain at 10 mg/kg, po after 0.16 hrs; format: ADME, organism-based, Wistar Han; set-up: dose 10 mg/kg, route oral; settings: in vivo
[30] = Plasma concentration in rat at 3 mg/kg, po after 6 hrs; format: ADME, organism-based; set-up: dose 3 mg/kg, route oral; settings: Wistar Han
Rattus norvegicus [31] = assay: Concentration in rat brain at 3 mg/kg, po after 0.5 hrs; format: ADME, organism-based, Wistar Han; set-up: dose 3 mg/kg, route oral; settings: in vivo
[32] = Terminal half life in rat at 3 mg/kg, po; format: ADME, organism-based; set-up: dose 3 mg/kg, route oral; settings: Wistar Han, in vivo, read-out: beta t1/2 (converted)
Rattus norvegicus [33] = assay: Concentration in rat brain at 3 mg/kg, po after 24 hrs; format: ADME, organism-based, Wistar Han; set-up: dose 3 mg/kg, route oral; settings: in vivo
Rattus norvegicus [34] = assay: Concentration in rat brain at 1 mg/kg, iv after 2 hrs; format: ADME, organism-based, Wistar Han; set-up: dose 1 mg/kg, route intravenous; settings: in vivo
[35] = Plasma concentration in rat at 1 mg/kg, iv after 0.083 hrs; format: ADME, organism-based; set-up: dose 1 mg/kg, route intravenous; settings: Wistar Han
[36] = Plasma concentration in rat at 3 mg/kg, po after 0.16 hrs; format: ADME, organism-based; set-up: dose 3 mg/kg, route oral; settings: Wistar Han
[37] = Plasma concentration in rat at 10 mg/kg, po after 1.5 hrs; format: ADME, organism-based; set-up: dose 10 mg/kg, route oral; settings: Wistar Han
Rattus norvegicus [38] = assay: Concentration in rat brain at 10 mg/kg, po after 0.5 hrs; format: ADME, organism-based, Wistar Han; set-up: dose 10 mg/kg, route oral; settings: in vivo

concentration at 24 h [1]: 53 nM
Ct (Rattus norvegicus [2]): 1515 pmol/g
Ct (Rattus norvegicus [3]): 351 pmol/g
concentration at 4 h [4]: 5970 nM
concentration at 2 h [5]: 1420 nM
bioavailability [6]: 75%
Ct (Rattus norvegicus [7]): 641 pmol/g
concentration at 1.5 h [8]: 1790 nM
IC50 [9]: 50 nM
half-life [10]: 3.48 h
Ct (Rattus norvegicus [11]): 522 pmol/g
Ct (Rattus norvegicus [12]): 811 pmol/g
Ct (Rattus norvegicus [13]): 199 pmol/g
Ct (Rattus norvegicus [14]): 709 pmol/g
Ct (Rattus norvegicus [15]): 1042 pmol/g
Ct (Rattus norvegicus [16]): 249 pmol/g
Ct (Rattus norvegicus [17]): 205 pmol/g
Tmax [18]: 4 h
Cmax (Rattus norvegicus [19]): 1666 pmol/g
concentration at 1.5 h [20]: 1120 nM
solubility [21]: 0.8 µg/mL (≈ 2.09 µM)
Activity [22]: Dose-dependent effect
concentration at 0.16 h [23]: 2200 nM
concentration at 0.5 h [24]: 1180 nM
Ct (Rattus norvegicus [25]): 944 pmol/g
Ct (Rattus norvegicus [26]): 1258 pmol/g
Tmax [27]: 0.5 h
clearance [28]: 5.25 mL/min/kg
Ct (Rattus norvegicus [29]): 16.4 pmol/g
concentration at 6 h [30]: 1860 nM
Ct (Rattus norvegicus [31]): 211 pmol/g
half-life [32]: 3.5 h
Ct (Rattus norvegicus [33]): < 125 pmol/g
Ct (Rattus norvegicus [34]): 449 pmol/g
concentration at 0.083 h [35]: 2650 nM
concentration at 0.16 h [36]: 60 nM
concentration at 1.5 h [37]: 3720 nM
Ct (Rattus norvegicus [38]): 181 pmol/g
SMILES: Cc1nc2cc(C(C)C)c(-c3ccc(Cl)c(OCC4CC4)c3)cc2c(=O)[nH]1
